From BindingDB's records for doi:10.7270/Q2251GJ9 (The Scripps Research Institute Molecular Screening Center, 2007)
pEC50: −log10 of the molar value.

Molecular target: Sphingosine 1-phosphate receptor 1 (Homo sapiens, UniProt P21453)
Assay: direct activation of human S1P1 – cell-based, agonist mode, 60K MLSMR set, dose response (AID 468)
Settings: not given

Sphingosine 1-phosphate receptor 1, sequence (P21453 whole entry): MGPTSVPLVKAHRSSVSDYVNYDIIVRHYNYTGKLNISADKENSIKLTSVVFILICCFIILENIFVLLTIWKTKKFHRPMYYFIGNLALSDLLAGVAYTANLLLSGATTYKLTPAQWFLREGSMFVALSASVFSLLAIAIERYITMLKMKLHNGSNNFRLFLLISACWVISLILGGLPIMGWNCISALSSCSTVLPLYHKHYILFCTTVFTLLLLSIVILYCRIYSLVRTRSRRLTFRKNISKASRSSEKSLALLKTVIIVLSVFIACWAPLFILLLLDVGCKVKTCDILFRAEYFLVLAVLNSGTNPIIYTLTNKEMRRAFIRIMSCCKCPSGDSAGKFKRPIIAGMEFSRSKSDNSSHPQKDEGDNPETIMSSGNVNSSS

SMILES | pEC50
Cn1c(C(=O)N2CCc3ccccc3C2)cc2oc3ccccc3c21 [2-(3,4-dihydroisoquinolin-2(1H)-ylcarbonyl)-1-methyl-1H-[1]benzofuro[3,2-b]pyrrole] | < 4.52
CC(C)c1ccc(OCc2nc(-c3ccccn3)no2)c(Br)c1 [5-[(2-bromanyl-4-propan-2-yl-phenoxy)methyl]-3-pyridin-2-yl-1,2,4-oxadiazole] | 5.35
CCn1c(-c2cccc(Cl)c2)n[nH]c1=S [SMR000104244] | < 4.02
CCc1c(C)sc(NC(=O)c2cc(-c3ccco3)on2)c1C#N [MLS000087225] | 5.38
CCN(C(=O)c1ccc(C(C)(C)C)cc1)c1nnc(Cn2nnc3ccccc32)s1 [MLS000072751] | 5.83
CC(C)COC(=O)NCCOC(=O)Nc1cccc(Cl)c1 [2-(2-methylpropoxycarbonylamino)ethyl N-(3-chlorophenyl)carbamate] | 5.21
CCOc1ccc(C2CC(c3cccc(OC)c3OC)n3nnnc3N2)cc1Cl (stereo unspecified) [5-(3-chloranyl-4-ethoxy-phenyl)-7-(2,3-dimethoxyphenyl)-1,5,6,7-tetrahydro-[1,2,3,4]tetrazolo[1,5-a]pyrimidine] | < 4.02
Fc1ccc2[nH]c3c(N4CCN(Cc5ccc6c(c5)OCO6)CC4)ncnc3c2c1 [4-[4-(1,3-benzodioxol-5-ylmethyl)-1-piperazinyl]-8-fluoro-5H-pyrimido[5,4-b]indole] | 5.71
Cc1cc(C(=O)CSc2nnc(-c3ccco3)o2)c(C)n1-c1ccc2c(c1)OCCO2 [1-[1-(2,3-dihydro-1,4-benzodioxin-6-yl)-2,5-dimethyl-3-pyrrolyl]-2-[[5-(2-furanyl)-1,3,4-oxadiazol-2-yl]thio]ethanone] | 5.12
CCOc1ccc(-c2nnc(-c3ccco3)o2)cc1OCC [2-(3,4-Diethoxy-phenyl)-5-furan-2-yl-[1,3,4]oxadiazole] | 5.93
c1ccc2c(c1)CCN(c1ncnc3c1[nH]c1ccccc13)C2 [SMR000039631] | 5.93
COc1ccc2c(c1)CCc1c(C(=O)Nc3ccc(OC)c(OC)c3)noc1-2 [MLS000087452] | 5.48
O=C1C2CCCN2C(c2cccnc2)N1c1cccc(Cl)c1 (stereo unspecified) [2-(3-chlorophenyl)-3-(3-pyridinyl)-5,6,7,7a-tetrahydro-3H-pyrrolo[1,2-c]imidazol-1-one] | < 4.02
CC1=NC(=O)NC(c2ccc(Cl)cc2)C1C(=O)OCc1ccc2c(c1)OCO2 (stereo unspecified) [1,3-benzodioxol-5-ylmethyl 4-(4-chlorophenyl)-6-methyl-2-oxidanylidene-3,4-dihydro-1H-pyrimidine-5-carboxylate] | < 7.52
Cc1cccc(NC(=O)Nc2ccc(C#N)cc2)n1 [1-(4-cyanophenyl)-3-(6-methyl-2-pyridinyl)urea] | < 4.52
NC(=Nc1nc2c(c(=O)[nH]1)CCCC2)Nc1ccccc1 [MLS000078734] | 5.14
CCn1c(SCC(=O)Nc2nc3ccc(C)cc3s2)nc2c(c1=O)SC(C)C2 (stereo unspecified) [2-[(3-ethyl-4-keto-6-methyl-6,7-dihydrothieno[3,2-d]pyrimidin-2-yl)thio]-N-(6-methyl-1,3-benzothiazol-2-yl)acetamide] | 5.25
Nc1ccc(N2CCOCC2)c(Cl)c1 [(3-chloro-4-morpholino-phenyl)amine] | 5.93
c1ccc(N2CCN(c3ncnc4c3oc3ccccc34)CC2)cc1 [4-(4-phenyl-1-piperazinyl)benzofuro[3,2-d]pyrimidine] | < 4.02
COc1ccc(CCNc2ncnc3c2oc2ccccc23)cc1OC [MLS000041708] | 6.27
Cn1c(C(=O)N2CCCc3ccccc32)cc2sccc21 [(3,4-Dihydro-2H-quinolin-1-yl)-(4-methyl-4H-thieno[3,2-b]pyrrol-5-yl)-methanone] | 5.75
Cc1cc(C)cc(-c2nc(-c3ccncc3)no2)c1 [5-(3,5-dimethylphenyl)-3-(4-pyridyl)-1,2,4-oxadiazole] | 5.69
CCCCc1ccc(C2C(C#N)C(=N)SC(=N)C2C#N)s1 (stereo unspecified) [2,6-bis(azanyl)-4-(5-butylthiophen-2-yl)-4H-thiopyran-3,5-dicarbonitrile] | 4.87
Cc1ccc(C(C)C)c(OCc2nc(-c3nonc3N)no2)c1 [4-[5-[(5-methyl-2-propan-2-yl-phenoxy)methyl]-1,2,4-oxadiazol-3-yl]-1,2,5-oxadiazol-3-amine] | 5.79
COc1cc2c(cc1OC)C(C)N(C(=O)c1cc3ccccc3o1)CC2 (stereo unspecified) [1-benzofuran-2-yl-(6,7-dimethoxy-1-methyl-3,4-dihydro-1H-isoquinolin-2-yl)methanone] | < 4.02

Same assay, conditions: inactive by the depositor's call

SMILES | pEC50
Cc1ccc(-n2ncc3c(N4CCCC(C)C4)ncnc32)c(C)c1 (stereo unspecified) [1-(2,4-dimethylphenyl)-4-(3-methylpiperidin-1-yl)-1H-pyrazolo[3,4-d]pyrimidine] | 4.96
O=C(OC1CCCCC1)c1ccc(NC(=O)c2ccco2)cc1 [4-(2-furoylamino)benzoic acid cyclohexyl ester] | 4.87
CC1=CC(C)(C)Nc2ccc(OC(=O)c3cccnc3)cc21 [(2,2,4-trimethyl-1H-quinolin-6-yl) pyridine-3-carboxylate] | 4.94
O=C(Nc1ccc(Oc2ccccc2)cc1)c1cnc2n(c1=O)CCS2 [5-keto-N-(4-phenoxyphenyl)-2,3-dihydrothiazolo[3,2-a]pyrimidine-6-carboxamide] | 4.78
Clc1ccc(-c2nc3nc4ccccc4nc3n2Cc2ccco2)cc1 [2-(4-chlorophenyl)-3-(2-furanylmethyl)imidazo[4,5-b]quinoxaline] | 4.60
Cc1nn(Cc2ccccc2)c(C)c1C(=O)OCC(=O)c1cc(C)n(C2CC2)c1C [1-benzyl-3,5-dimethyl-pyrazole-4-carboxylic acid [2-(1-cyclopropyl-2,5-dimethyl-pyrrol-3-yl)-2-keto-ethyl] ester] | 4.86
CCOc1cc(-c2noc(-c3cccnc3)n2)ccc1OC [3-(3-ethoxy-4-methoxy-phenyl)-5-(3-pyridyl)-1,2,4-oxadiazole] | 4.73
CC(C)Cn1c(N)c(C(=O)CSc2ccc3c(c2)OCCO3)c(=O)n(C)c1=O [6-amino-5-[2-(2,3-dihydro-1,4-benzodioxin-6-ylsulfanyl)acetyl]-3-methyl-1-(2-methylpropyl)pyrimidine-2,4-dione] | 4.62
CCn1c(NC(=O)c2cccc(Cn3cc(Cl)cn3)c2)nc2ccccc21 [3-[(4-chloranylpyrazol-1-yl)methyl]-N-(1-ethylbenzimidazol-2-yl)benzamide] | 4.85
COc1ccc2c(c1)CCc1c(C(=O)NC3CCCCC3)noc1-2 [MLS000087437] | 4.02
CC(C)Cc1cc(C(=O)Nc2cc(Br)ccc2O)no1 [MLS000116399] | 4.69
CC(=O)c1ccc(N2CCN(c3ccc(C(F)(F)F)cn3)CC2)cc1 [1-[4-[4-[5-(trifluoromethyl)-2-pyridinyl]-1-piperazinyl]phenyl]ethanone] | 4.53
COc1ccc(-c2nc(-c3cccc(C(F)(F)F)c3)no2)cc1OC [5-(3,4-dimethoxyphenyl)-3-[3-(trifluoromethyl)phenyl]-1,2,4-oxadiazole] | 4.65
Cc1ccccc1OCC(=O)Nc1ccc(N2CCN(C(=O)C(C)C)CC2)c(Cl)c1 [MLS000034491] | 4.77
COc1ccc2c(c1)-c1nc(NC(=O)c3cccs3)sc1CC2 [N-(8-methoxy-4,5-dihydrobenzo[e][1,3]benzothiazol-2-yl)-2-thiophenecarboxamide] | 4.76
Cc1nn(Cc2ccc(Cl)cc2)c(C)c1NC(=O)c1cc(-c2ccco2)on1 [MLS000087233] | 4.86
